Earlier results on 1 molecule are cited in patent US20240216401A1, “COMBINATION THERAPY BY USING AKR1C3-ACTIVATED COMPOUND WITH IMMUNE CHECKPOINT INHIBITOR” (OBI Pharma, Inc., priority 2021, published 2024).

This data set has as its system tumor. The note with it: in vitro and in vivo; references 6, 21; cited from earlier work.

On to `CS(=O)(=O)OCCN(CCBr)c1c(C(=O)NCCOP(=O)(O)O)cc([N+](=O)[O-])cc1[N+](=O)[O-]` [PR104], for which the “anti-tumor activity (in words)” value is listed as “good anti-tumor activity”.
